Laboratory results from patent publication EP0188781A1, “1-Oxa-1-dethia-cephalosporin compounds and antibacterial agent comprising the same” (Merck & Co., Inc., priority 1984, dated 1986).

Experiments:
[1] = test system: Streptococcus faecalis W-73; test: Minimum inhibitory concentration (MIC) in vitro, antibacterial spectrum; type: cell-based
[2] = test system: Pseudomonas aeruginosa E-2; test: as above; type: cell-based
[3] = test system: Proteus vulgaris GN76; test: as above; type: cell-based
[4] = test system: Streptococcus faecalis ATCC8043; test: as above; type: cell-based
[5] = test system: Escherichia coli NIHJ JC-2; test: as above; type: cell-based
[6] = test system: Staphylococcus aureus Smith; test: as above; type: cell-based
[7] = test system: Escherichia coli GN206; test: as above; type: cell-based
[8] = test system: Streptococcus faecalis W-75; test: as above; type: cell-based
[9] = test system: Streptococcus faecalis; test: Antibacterial activity in vitro, summary in words; type: cell-based; conditions: statement in words on Table 1
[10] = test system: Pseudomonas aeruginosa MB3833; test: Minimum inhibitory concentration (MIC) in vitro, antibacterial spectrum; type: cell-based
[11] = test system: Serratia marcescens No. 2; test: as above; type: cell-based
[12] = test system: Pseudomonas aeruginosa; test: Antibacterial activity in vitro, summary in words; type: cell-based; conditions: statement in words on Table 1
Description: Besides, the compounds of Examples 1, 2, 4, 5 and 7 advantageously are also effective against Pseudomonas aeruginosa.

[13] = Concentration in serum after subcutaneous administration to mice, bioassay with Escherichia coli; type: in vivo; conditions: mouse, sc, 25 mg/kg subcutaneously; for concentration at 0.5 h: 1/2 hour; for concentration at 0.25 h: 1/4 hour; for concentration at 5 min: 1/12 hour
Description: For the serum which was separated from the blood samples, the concentration in the serum of the compound administered was bioassayed using Escherichia coli as assay microorganism.

[14] = test system: Streptococcus faecalis W-74; test: Minimum inhibitory concentration (MIC) in vitro, antibacterial spectrum; type: cell-based
[15] = test system: Staphylococcus aureus 209 P JC-1; test: as above; type: cell-based
[16] = test system: Proteus mirabilis GN79; test: as above; type: cell-based
[17] = test system: Salmonella typhimurium LT-2; test: as above; type: cell-based
[18] = test system: Proteus rettgeri GN624; test: as above; type: cell-based
[19] = test system: Pseudomonas aeruginosa MB3829; test: as above; type: cell-based

CO/N=C(\C(=O)N[C@@H]1C(=O)N2C(C(=O)O)=C(CSc3nc(=O)c(O)nn3C)[C@H](C)O[C@H]12)c1csc(N)n1 [Compound No. 1, (6R,7R)-7[(Z)-2-(2-aminothiazol-4-yl)-2-(methoxyimino)acetamido]-(2S)-2-methyl-3-(2,5-dihydro-6-hydroxy-2-methyl-5-oxo-1,2,4-triazin-3-yl)thiomethyl-l-oxa-l-dethia-ceph-3-em-4-carboxylic acid]
Minimum inhibitory concentration (MIC) [1]: 50
Minimum inhibitory concentration (MIC) [2]: 12.5
Minimum inhibitory concentration (MIC) [3]: 0.10
Minimum inhibitory concentration (MIC) [4]: 6.25
Minimum inhibitory concentration (MIC) [5]: 0.10
Minimum inhibitory concentration (MIC) [6]: 1.56
Minimum inhibitory concentration (MIC) [7]: 0.78
Minimum inhibitory concentration (MIC) [8]: 0.20
effective against Streptococcus faecalis [9]: effective
Minimum inhibitory concentration (MIC) [10]: 6.25
Minimum inhibitory concentration (MIC) [11]: 0.39
effective against Pseudomonas aeruginosa [12]: effective
concentration at 0.5 h [13]: 41000 ng/mL
concentration at 0.25 h [13]: 47700 ng/mL
concentration at 5 min [13]: 27000 ng/mL
concentration at 1 h [13]: 24800 ng/mL
Minimum inhibitory concentration (MIC) [14]: 6.25
Minimum inhibitory concentration (MIC) [15]: 0.78
Minimum inhibitory concentration (MIC) [16]: 0.025
Minimum inhibitory concentration (MIC) [17]: 0.05
Minimum inhibitory concentration (MIC) [18]: 0.78
Minimum inhibitory concentration (MIC) [19]: 6.25

CCN1CCN(C(=O)NC(C(=O)N[C@@H]2C(=O)N3C(C(=O)O)=C(CSc4nc(=O)c(O)nn4C)[C@H](C)O[C@H]23)c2csc(N)n2)C(=O)C1=O (single isomer, unassigned) [Compound No. 5]
Minimum inhibitory concentration (MIC) [1]: 25
Minimum inhibitory concentration (MIC) [2]: 3.13
Minimum inhibitory concentration (MIC) [3]: 0.025
Minimum inhibitory concentration (MIC) [4]: 50
Minimum inhibitory concentration (MIC) [5]: 0.10
Minimum inhibitory concentration (MIC) [6]: 3.13
Minimum inhibitory concentration (MIC) [7]: 1.56
Minimum inhibitory concentration (MIC) [8]: 3.13
effective against Streptococcus faecalis [9]: effective
Minimum inhibitory concentration (MIC) [10]: 3.13
Minimum inhibitory concentration (MIC) [11]: 0.39
effective against Pseudomonas aeruginosa [12]: effective
concentration at 0.5 h [13]: 25000 ng/mL
concentration at 0.25 h [13]: 44000 ng/mL
concentration at 5 min [13]: 24000 ng/mL
concentration at 1 h [13]: 10000 ng/mL
Minimum inhibitory concentration (MIC) [14]: 6.25
Minimum inhibitory concentration (MIC) [15]: 1.56
Minimum inhibitory concentration (MIC) [16]: 0.78
Minimum inhibitory concentration (MIC) [17]: 0.10
Minimum inhibitory concentration (MIC) [18]: 0.78
Minimum inhibitory concentration (MIC) [19]: 1.56
